Measured values taken from patent US11340239B2, “BNP (1-32) epitope and antibodies directed against said epitope” (Bio-Rad Europe GMBH, priority 2007, dated 2022).
“Also recorded” adds a separate entry of the source. Positions of bridges follow the written chain, without caps; N, C: chain ends. Non-standard residues stand in square brackets, D forms with d. Residues, ends and D or L forms follow the SMILES beside them. *: point of attachment. Ahx = NCCCCCC(=O)O; Acm = CC(=O)NC*

Legend:
[1] = Accelerated liquid stability, BioPlex 2200 proBNP assay
Method: (§1) The different compounds were tested at different concentrations diluted in 0.1 M succinate buffer, pH 7.6, containing 5% BSA, 2 mM CaCl2, 10% antiproteases cocktail (Sigma reference P2714), 0.1% Proclin, 0.095% NaN3 and 0.1% sodium benzoate.
(§2) The compounds stability was studied in accelerated condition (room temperature) compared to synthetic BNP(1-32) (Sigma-Aldrich, Etats-Unis, #B-5900) and recombinant proBNP(1-108) (HyTest Ref. 8PRO8) in the following way:
(§3) Recombinant proBNP(1-108), synthetic BNP(1-32) and calibrator peptides were diluted in 0.1 M succinate buffer, pH 7.6 described above. Each solution was divided in 10 tubes placed at room temperature (20° C.±5° C.). Then one tube of each solution was frozen at J0, J+7, J+14, J+21. At J+21, the different solutions were thawed and assayed by means of the BioPlex™ 2200 proBNP assay described in Example 14 or of the immunoassays described in Examples 8.2 and 10.2.
(§4) In the BioPlex™ 2200 proBNP assay, the stability of two concentrations of proBNP(1-108), 10 ng/mL and 1 ng/mL, of CaliproBNP1, 2 μg/mL and 0.125 μg/mL and CaliproBNP3, 1 μg/mL and 0.3 μg/mL, were analyzed. In ELISA format, three concentrations of proBNP(1-108) and BNP(1-32), 1.56 ng/mL, 0.78 ng/ml and 0.39 ng/mL, and of CaliproBNP5, […], 31 ng/mL and 15.6 ng/mL, were analysed.

20G7 antibody [2] = assay: Calibrator standard range in BioPlex 2200 proBNP assay; format: binding; conditions: FIGS. 14 and 15
Method: (§5) The CaliproBNP1 calibrator was diluted to 1 μg/mL, 0.2 μg/mL, 0.1 μg/mL, and 0.02 μg/mL, the CaliproBNP3 calibrator was diluted to 1.6 μg/mL, 0.8 μg/mL, 0.3 μg/mL, 0.06 μg/mL, the CaliproBNP5 and CaliproBNP6 calibrators were diluted to from 100 ng/ml to 0.01 ng/ml in the same 0.1 M succinate buffer, pH 7.6.

[3] = Accelerated liquid stability, ELISA format
Method: as §1, §2, §3, §4

20G7 antibody [4] = assay: Calibrator standard range in ELISA with 20G7 in revelation; format: binding; conditions: FIGS. 16 and 17
Method: as §5

BNP(1-32) = target: T1, BNP(1-32) (Homo sapiens, UniProt P16860); assay: Immunisation of mice, ELISA of sera; format: in vivo; conditions: Balb/c mice immunised with KLH-coupled peptide
T1 construct: BNP(1-32): synthetic peptide (Sigma-Aldrich, USA, #B-5900); purchased Sigma-Aldrich B-5900; host or cells: chemical synthesis
T1 sequence (P16860 103-134 limits assumed): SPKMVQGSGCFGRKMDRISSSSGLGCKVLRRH
Method: In order to produce monoclonal antibodies, ten mice (Balb/c strain females, 5 weeks old, ref: SIFE055, Charles Rivers, Mass., USA) were immunised using one of the following peptides:
For the first injection, an emulsion of 100 μg of KLH-coupled peptide (at a concentration of 1 mg/ml) diluted to ½ in Freund's complete adjuvant (Sigma, #F-5881) was prepared, and 200 μL of said emulsion (i.e. 100 μg of peptide) were injected subcutaneously into each mouse. At intervals of 20 days, three 200 μL booster shots of an emulsion of KLH-coupled peptide (i.e. 100 μg of peptide) and Freund's incomplete adjuvant (Sigma, #F-5506) were injected subcutaneously, then peritoneally, into each mouse.
An ELISA test was carried out on a solid support to detect the presence of anti-BNP(1-32) antibodies in a mouse serum sample. […]
The microplate was washed three times with 0.1% PBS-T. Each serum from previously immunised mice was subsequently diluted tenfold with 0.1% PBS-T containing 0.1% milk (semi-skimmed), then deposited on the basis of 100 μL per well and left to incubate for two hours at 37° C. […] The enzymatic reaction was stopped by adding 50 μL of sulphuric acid (H2SO4, 4 N) per well, and the OD at 490 nm was subsequently measured in each well.

[5] = room temperature, up to J0 + 21

## CSCC[C@H](NC(=O)[C@H](CCCCN)NC(=O)[C@H](CCCNC(=N)N)NC(=O)CNC(=O)[C@H](Cc1ccccc1)NC(=O)CCCCCNC(=O)CNC(=O)[C@H](CCC(N)=O)NC(=O)[C@@H](NC(=O)[C@H](CCSC)NC(=O)[C@H](CCCCN)NC(=O)[C@@H]1CCCN1C(=O)[C@H](CO)NC(=O)[C@H](CCCNC(=N)N)NC(=O)[C@@H]1CCCN1C(=O)[C@H](C)NC(=O)[C@H](CCCNC(=N)N)NC(=O)[C@H](CC(C)C)NC(=O)[C@@H](NC(=O)[C@H](Cc1ccc(O)cc1)NC(C)=O)[C@@H](C)O)C(C)C)C(=O)N[C@@H](CC(=O)O)C(=O)N[C@@H](CCCNC(=N)N)C(N)=O [CaliproBNP3, Ac-YTLRAPRSPKMVQG-Ahx-FGRKMDR-CONH2] (Ac-YTLRAPRSPKMVQG[Ahx]FGRKMDR-NH2)
[1]; J0 + 7, 0.3 μg/mL
  Liquid stability at room temperature in buffer, ratio “signal at J0 + X/signal at J0”: 0.91
[1]; J0 + 7, 1 μg/mL
  Liquid stability at room temperature in buffer, ratio “signal at J0 + X/signal at J0”: 0.92
[1]; J0 + 14, 0.3 μg/mL
  Liquid stability at room temperature in buffer, ratio “signal at J0 + X/signal at J0”: 0.98
[1]; J0 + 14, 1 μg/mL
  Liquid stability at room temperature in buffer, ratio “signal at J0 + X/signal at J0”: 1.02
[1]; J0 + 21, 0.3 μg/mL
  Liquid stability at room temperature in buffer, ratio “signal at J0 + X/signal at J0”: 1.15
[1]; J0 + 21, 1 μg/mL
  Liquid stability at room temperature in buffer, ratio “signal at J0 + X/signal at J0”: 1.06
[1]; [5]
  stability compared with recombinant proBNP(1-108): higher stability
20G7 antibody [2]
  signal in the BioPlex 2200 proBNP assay: increasing signal with the compound concentration

## CSCC[C@H](NC(=O)[C@H](CCCCN)NC(=O)[C@H](CCCNC(=N)N)NC(=O)CNC(=O)[C@H](Cc1ccccc1)NC(=O)CCCCCNC(=O)CNC(=O)[C@H](CO)NC(=O)CNC(=O)[C@H](CCC(N)=O)NC(=O)[C@@H](NC(=O)[C@H](CCSC)NC(=O)[C@H](CCCCN)NC(=O)[C@@H]1CCCN1C(=O)[C@H](CO)NC(C)=O)C(C)C)C(=O)N[C@@H](CC(=O)O)C(=O)N[C@@H](CCCNC(=N)N)C(N)=O [CaliproBNP5, Ac-SPKMVQGSG-Ahx-FGRKMDR-CONH2] (Ac-SPKMVQGSG[Ahx]FGRKMDR-NH2)
[3]; J0 + 7, 0.0156 ng/mL
  Liquid stability at room temperature in buffer, ratio “signal at J0 + X/signal at J0”: 1.1
[3]; J0 + 7, 0.031 ng/mL
  Liquid stability at room temperature in buffer, ratio “signal at J0 + X/signal at J0”: 1.06
[3]; J0 + 7, 0.0625 ng/mL
  Liquid stability at room temperature in buffer, ratio “signal at J0 + X/signal at J0”: 1.02
[3]; J0 + 14, 0.0156 ng/mL
  Liquid stability at room temperature in buffer, ratio “signal at J0 + X/signal at J0”: 1.01
[3]; J0 + 14, 0.031 ng/mL
  Liquid stability at room temperature in buffer, ratio “signal at J0 + X/signal at J0”: 1.01
[3]; J0 + 14, 0.0625 ng/mL
  Liquid stability at room temperature in buffer, ratio “signal at J0 + X/signal at J0”: 1.02
[3]; J0 + 21, 0.0156 ng/mL
  Liquid stability at room temperature in buffer, ratio “signal at J0 + X/signal at J0”: 1.10
[3]; J0 + 21, 0.031 ng/mL
  Liquid stability at room temperature in buffer, ratio “signal at J0 + X/signal at J0”: 1.06
[3]; J0 + 21, 0.0625 ng/mL
  Liquid stability at room temperature in buffer, ratio “signal at J0 + X/signal at J0”: 1.1
[3]; [5]
  stability compared with recombinant proBNP(1-108) and BNP(1-32): higher stability
20G7 antibody [4]
  signal in the BNP(1-32) and the proBNP(1-108) assay: signal increasing with the compound concentration

## Ac-TGCFGRKMDRISTSTAIGCKVLCys-CONH2 (Ac-TGCFGRKMDRISTSTAIGCKVLC-NH2; disulfide 3-19; also: KLH-coupled) [SEQ ID NO: 4, immunogen peptide, coupled to KLH]
BNP(1-32)
  immune response / antiserum reactivity towards BNP(1-32): very reactive; also recorded: much greater

## CC[C@H](C)[C@H](NC(=O)[C@H](CCCNC(=N)N)NC(=O)[C@H](CC(=O)O)NC(=O)[C@H](CCSC)NC(=O)[C@H](CCCCN)NC(=O)[C@H](CCCNC(=N)N)NC(=O)CNC(=O)[C@H](Cc1ccccc1)NC(=O)[C@H](CO)NC(=O)CCCCCNC(=O)[C@@H](NC(=O)[C@H](CCSC)NC(=O)[C@H](CCCCN)NC(=O)[C@@H]1CCCN1C(=O)[C@H](CO)NC(=O)[C@H](CCCNC(=N)N)NC(=O)[C@@H]1CCCN1C(=O)[C@H](C)NC(=O)[C@H](CCCNC(=N)N)NC(=O)[C@H](CC(C)C)NC(=O)[C@@H](NC(=O)[C@H](Cc1ccc(O)cc1)NC(C)=O)[C@@H](C)O)C(C)C)C(=O)N[C@@H](CO)C(=O)N[C@@H](CO)C(N)=O [CaliproBNP1, Ac-YTLRAPRSPKMV-Ahx-SFGRKMDRISS-CONH2] (Ac-YTLRAPRSPKMV[Ahx]SFGRKMDRISS-NH2)
20G7 antibody [2]
  signal in the BioPlex 2200 proBNP assay: increasing signal with the compound concentration

## Ac-YTLRAPRSPKMV-Ahx-FGRKMDR-Ahx-SGLGC*KVLRRH-COOH (Ac-YTLRAPRSPKMV[Ahx]FGRKMDR[Ahx]SGLGC(Acm)KVLRRH-OH; SMILES CSCC[C@H](NC(=O)[C@H](CCCCN)NC(=O)[C@H](CCCNC(=N)N)NC(=O)CNC(=O)[C@H](Cc1ccccc1)NC(=O)CCCCCNC(=O)[C@@H](NC(=O)[C@H](CCSC)NC(=O)[C@H](CCCCN)NC(=O)[C@@H]1CCCN1C(=O)[C@H](CO)NC(=O)[C@H](CCCNC(=N)N)NC(=O)[C@@H]1CCCN1C(=O)[C@H](C)NC(=O)[C@H](CCCNC(=N)N)NC(=O)[C@H](CC(C)C)NC(=O)[C@@H](NC(=O)[C@H](Cc1ccc(O)cc1)NC(C)=O)[C@@H](C)O)C(C)C)C(=O)N[C@@H](CC(=O)O)C(=O)N[C@@H](CCCNC(=N)N)C(=O)NCCCCCC(=O)N[C@@H](CO)C(=O)NCC(=O)N[C@@H](CC(C)C)C(=O)NCC(=O)N[C@@H](CSCNC(C)=O)C(=O)N[C@@H](CCCCN)C(=O)N[C@H](C(=O)N[C@@H](CC(C)C)C(=O)N[C@@H](CCCNC(=N)N)C(=O)N[C@@H](CCCNC(=N)N)C(=O)N[C@@H](Cc1c[nH]cn1)C(=O)O)C(C)C) [CaliproBNP6, triepitopic calibrator]
20G7 antibody [4]
  signal in the BNP(1-32) and the proBNP(1-108) assay: signal increasing with the compound concentration
